Measured values from patent publication US20250222011A1, “DRUG TARGET FOR INHIBITING TUMOR, USE, AND ORAL DRUG” (CHI BIOTECH CO., LTD., priority 2024, published 2025).

Tests used:
Format in all cases: cell-based
ovarian cancer cells = test: Apoptosis of ovarian cancer cells (other experiments)
SOX2 = test: Western blotting of SOX2 expression after ATCA treatment; settings: FIG. 4
HER2 = test: Western blotting of HER2 expression after ATCA treatment; settings: FIG. 4
polyribosomes = test: Polysome profiling (cell translation initiation efficiency); settings: 1 mg/mL, FIG. 5
Description: Polysome profiling: cells were plated in a 75 T flask with 2 million cells per flask and allowed to adhere for 24 h, and the ACTA was added to the experimental group to make a concentration of the working solution at 1 mg/mL. The control group was replaced with a new medium. Samples were collected after 24 h and 48 h of ATCA treatment. The medium was aspirated, the samples were washed twice with PBS, and 2 mL of Lysis Buffer (RB Buffer, 1% Ttiton X-100, and 10 μg/μL cycloheximide) was added to allow lysis for 30 min on ice, and a resulting lysate was pipetted into an RNase-free EP tube. […] After centrifugation for 4 h and 10 min at 4° C. and 25,400 rpm, high-performance liquid chromatography (HPLC) was conducted to allow relative quantitative analysis of polyribosomes, monoribosomes, and large and small subunits of ribosomes.

nascent peptides = test: Detection of nascent peptides (puromycin labelling, Western blotting); settings: 1 mg/mL, FIG. 6
Description: Detection of nascent peptides: the cells were plated in a 6-well plate, with 200,000 cells in each well. After 24 h of adhesion, ATCA was added to make a working solution at a concentration of 1 mg/mL, while the control group was replaced with new medium. The experimental and control groups were treated for 2 h, 6 h, 12 h, 24 h, and 48 h separately, […], and cycloheximide was added to the positive control group for 10 min of treatment 25 min before sample collection. 10 μg/μL puromycin-labeled nascent peptide was added to all wells for 15 min, the medium was aspirated, the cells were washed twice with PBS, added with IP & WB lysis buffer to allow lysis on ice for 30 min, and centrifuged at 12,000 g for 20 min at 4° C. A resulting supernatant was transferred to a new centrifuge tube, 10 μg of protein was added to 5×SDS Loading Buffer, denatured in a 100° C. water bath for 10 min, and quantitatively detected by Western blotting. Western Blotting: the sample and molecular standard of pre-stained protein were loaded onto an SDS-PAGE gel (10 cm×10 cm) to allow electrophoresis at 100 V for 40 min. The proteins in SDS-PAGE were transferred to nitrocellulose membrane at 100 V, 230 mA within 1 h. After transfer, the nitrocellulose membrane was washed with 25 mL of TBS for 5 min at room temperature. […]

[1] = test system: lung adenocarcinoma cells A549; test: Apoptosis by Annexin V and propidium iodide staining, flow cytometry; settings: 0.5 mg/mL ATCA, P<0.05, n=4
Excerpt: (§1) In the experiment of ATCA inducing apoptosis in lung cancer cells, Annexin V and propidium iodide were used to stain the cancer cells and then detected by flow cytometry.

[2] = test system: lung adenocarcinoma cells H1299; test: as above; settings: 0.5 mg/mL ATCA, P<0.05, n=4
Excerpt: as §1

normal lung cells HBE = test: as above; settings: 0.5 mg/mL ATCA
phosphorylated EIF2S1 = test: Western blotting detection of EIF2A phosphorylation; settings: 1 mM of ATCA for 48 h, FIG. 3
Description: Western Blotting method: the sample and molecular weight standard of pre-stained protein were loaded onto an SDS-PAGE gel (10 cm×10 cm) to allow electrophoresis at 100 V for 40 min. After treating for 1 h at 100 V, 230 mA, the protein in SDS-PAGE was transferred to a nitrocellulose membrane. After transfer, the nitrocellulose membrane was washed with 25 mL of TBS for 5 min at room temperature. The nitrocellulose membrane was placed in 25 mL of blocking buffer (TBST, 5% skim milk) and incubated at room temperature for 1 h. The membrane was washed three times with 15 mL TBST, 5 min each time. The membrane and phosphorylated EIF2S1 primary antibody (diluted at 1:1500) were placed in 10 mL of a primary antibody dilution buffer and incubated overnight at 4° C. with gentle shaking at certain intervals. The membrane was washed three times with 15 mL TBST, 5 min each time. A rabbit secondary antibody was prepared with 5% skim milk at a ratio of 1:2000 and incubated at room temperature for 1.5 h. The membrane was washed three times with 15 mL TBST, 5 min each time. The membrane was incubated with 10 mL of LumiGLO® (0.5 mL 20× LumiGLO®, 0.5 mL 20× peroxide, and 9.0 mL purified water) at room temperature for 1 min with gentle agitation at certain intervals. The excess developer on the membrane was drained (no drying), wrapped in plastic film, and then developed with a BIO-RAD developer.

liver cancer cells = test: Proliferation of liver cancer cells (other experiments)

O=C(O)C1=CC(=C(c2ccc(O)c(C(=O)O)c2)c2ccc(O)c(C(=O)O)c2)C=CC1=O [ATCA, aurintricarboxylic acid]
apoptosis of ovarian cancer cells (ovarian cancer cells): induce apoptosis | SOX2 expression (SOX2): downregulation | HER2 expression (HER2): downregulation | polysome distribution curve (polyribosomes; 24 h after adding the drug): did not change much | polyribosome fraction (polyribosomes; 48 h after adding the drug): significantly reduced | translation elongation (polyribosomes): did not affect translation elongation | protein synthesis (nascent peptides) (nascent peptides; 2 h to 12 h after adding the drug): had not been significantly blocked | number of new peptide chains compared with that without the drug (nascent peptides; 24 h to 48 h after adding the drug): significantly reduced | apoptosis of A549 cells [1]: significant apoptosis | apoptosis of H1299 cells [2]: significant apoptosis | apoptosis of normal lung cells HBE (normal lung cells HBE): did not show apoptosis | EIF2S1 phosphorylation abundance (phosphorylated EIF2S1): did not affect its phosphorylation abundance | proliferation of liver cancer cells (liver cancer cells): inhibit the proliferation
